Measured values as given in patent EP1923473B1, “Bis-diglycolamides (BISDGA) as new extractants for lanthanides [Ln(III)] and actinides [An(III)] from aqueous high-level wastes” (Universidad Autónoma de Madrid, priority 2006, dated 2008).

How the values were obtained:
[1] = Eu/Am selectivity factor in extraction from 3 mol/L nitric acid; assay type: physicochemical; conditions: 0.1 mol/L in TPH/1-octanol (50:50)%vol; aqueous [HNO3] 3 mol/L
Procedure: 600 µL of the organic phase of the compound to be studied, previously equilibrated, were contacted with 600 µL of aqueous phase consisting of a 3 mol/L nitric acid solution spiked with 600 Bq of ^152Eu and 600 Bq of ^241Am. It was stirred vigorously by means of an oscillating shaker for 30 minutes and the phases were separated by centrifugation at 5000 rpm. 400 µL were taken from each of the phases for determining the concentration of the radionuclides ^152Eu and ^241Am. This determination was carried out by means of the high energy gamma spectrometry technique with a high-purity Ge detector (Canberra Inc.), using the 122 keV line for the determination of ^152Eu concentration and the 59.5 keV line for the determination of ^241Am concentration. The distribution coefficient was calculated by relating the concentration of each of the radionuclides in the organic phase and in the aqueous phase, according to the expression: DM = ([M]org)/([M]aq) [formula]
The Eu/Am selectivity factor was calculated by relating the corresponding distribution coefficients of Eu with those of Am in the same experimental conditions: SFEu/Am = DEu /DAm [formula]
The distribution coefficients and the selectivity factor of each of them were determined as indicated in sections A) to C).

[2] = Hydrolytic stability, extraction capability after contact with 3 mol/L nitric acid; assay type: physicochemical; conditions: 0.1 mol/L in n-dodecane/1-octanol (95:5)%vol; for extraction capability of Eu (III) (DEu): during the different contact time periods with 3 mol/L nitric acid
Procedure: The organic solutions of the compounds to be tested were prepared and equilibrated with 3 mol/L nitric acid, as has been indicated in sections A) and B).
Then, 700 µL of the equilibrated organic phase were put in vials of an approximate volume of 2 mL and were contacted with 700 µL of 3 mol/L nitric acid. They were stirred vigorously in an oscillating shaker for periods of 7, 15, 24, 36, 42, 50 and 66 days. After each permanent contact period with the nitric acid aqueous phase, the extraction capability of the organic solution was evaluated, taking 600 µL of the corresponding organic phase and contacting it with 600 µL of aqueous phase formed by a 3 mol/L nitric acid solution spiked with 600 Bq of ^152Eu and with 600 Bq of ^241Am. It was stirred vigorously by means of an oscillating shaker for 15 minutes. The separation of the phases was carried out by centrifugation at 5000 rpm. 400 µL of each of the phases were taken for the determination of the concentration of ^152Eu and ^241Am, as in section C).
After the permanent contact periods with the 3 mol/L nitric acid solution, the extraction capability of the organic solutions of both compounds was evaluated with 3 mol/L nitric acid solutions containing 600 Bq of ^152 Eu and 600 Bq of ^241Am.

Q: Which results are given for “2-Dioctylcarbamoylmethoxy-N-[3-[3-(2-dioctylcarbamoyl-methoxyacetylamino)propoxy]propyl]acetamide [Compound 18]”?
A: SFEu/Am [1]: 6.0; DAm ([2]; after 42 days of permanent contact with 3 mol/L nitric acid): 280; extraction capability of Eu (III) (DEu) [2]: remains constant

Q: With “2-Dioctylcarbamoylmethoxy-N-[3-[(2-dioctylcarbamoyl-methoxy-acetylamino)methyl]benzyl]acetamide [Compound 4]” as the substance, how does the SFEu/Am [1] read?
A: 4.3

Q: And the DAm ([2]; after 66 days of permanent contact with 3 mol/L nitric acid)?
A: 145

Q: What about the “extraction capability of Eu (III) (DEu)” value [2] of the same substance?
A: remains constant
